According to patent US20240024273A1, “TOPICAL ADMINISTRATION OF 2-(DIETHYLAMINO)ETHYL 2-(4-ISOBUTYLPHENYL)PROPRIONATE FOR TREATMENT OF DISEASES” (TECHFIELDS PHARMA CO., LTD., priority 2020, published 2024):

Test system: Subjects with Osteoarthritis of the Knee
Experiment: Second Phase 2 study: safety (treatment-emergent adverse events)
Format: in vivo, human
Settings: BID
Text: Safety assessments will be performed at each visit and will include assessment of AEs, vital signs (blood pressure, pulse rate, and oral temperature), clinical laboratories, physical examination, skin irritation, and electrocardiograms (ECGs) as indicated in the study flow chart, Table 47.
Safety assessments will include AEs, vital signs (blood pressures, pulse rate, and oral temperature), clinical laboratories, physical examination, skin irritation, and ECGs at various time points during the study as indicated in the study flow chart.
Adverse events of interest include: local skin reactions around the treated knee(s), upper stomach pain, GI bleeding, serious cardiovascular side effects (e.g., thrombotic events, myocardial infarction, or stroke), jaundice, elevated liver function tests, and nausea.
Safety analyses will be conducted on the SAS. Safety parameters will be listed and summarized using standard descriptive statistics, as appropriate. No formal statistical analyses are planned.

[1] = moderate adverse events, 4.375 mg/knee, N = 71
[2] = moderate adverse events, 8.75 mg/knee, N = 70
[3] = possibly, probably, or definitely related to study drug, 4.375 mg/knee, N = 71
[4] = possibly, probably, or definitely related to study drug, 8.75 mg/knee, N = 70
[5] = possibly, probably, or definitely related to study drug, 17.5 mg/knee, N = 70

CCN(CC)CCOC(=O)C(C)c1ccc(CC(C)C)cc1 (stereo not shown) [2-(diethylamino)ethyl 2-(4-isobutylphenyl)propionate]
41.4%: Total Adverse Events: percentage of subjects with adverse events [4]
33.8%: Total Adverse Events: percentage of subjects with adverse events [3]
26: Total Adverse Events: number of adverse events [3]
4.2%: Total Adverse Events: percentage of subjects with adverse events [1] | Aspartate Aminotransferase Increased: percentage of subjects with adverse events [3]
4.3%: Abdominal Discomfort: percentage of subjects with adverse events [4] | Hypertriglyceridemia: percentage of subjects with adverse events [4] | Application Site Rash: percentage of subjects with adverse events [5]
5.7%: Total Adverse Events: percentage of subjects with adverse events [2] | Headache: percentage of subjects with adverse events [4] | Administration Site Conditions: percentage of subjects with adverse events [5]
1: Gastroenteritis: subjects with adverse events [1] | Gastroesophageal reflux disease: number of adverse events [1] | Gastroesophageal reflux disease: subjects with adverse events [1] | Upper Respiratory Tract Infection: number of adverse events [1] | Upper Respiratory Tract Infection: subjects with adverse events [1] | Abdominal Pain Upper: number of adverse events [3] | Abdominal Pain Upper: subjects with adverse events [3] | Administration Site Conditions: number of adverse events [3] | Administration Site Conditions: subjects with adverse events [3] | Alanine Aminotransferase Increased: number of adverse events [3] | Alanine Aminotransferase Increased: subjects with adverse events [3] | Application Site Irritation: number of adverse events [3] | Application Site Irritation: subjects with adverse events [3] | Headache: number of adverse events [3] | Headache: subjects with adverse events [3] | Abdominal Pain Upper: number of adverse events [4] | Abdominal Pain Upper: subjects with adverse events [4] | Administration Site Conditions: number of adverse events [4] | Administration Site Conditions: subjects with adverse events [4] | Alanine Aminotransferase Increased: number of adverse events [4] | Alanine Aminotransferase Increased: subjects with adverse events [4] | Application Site Irritation: number of adverse events [4] | Application Site Irritation: subjects with adverse events [4] | Throat Irritation: number of adverse events [4] | Throat Irritation: subjects with adverse events [4] | Abdominal Discomfort: number of adverse events [5] | Abdominal Discomfort: subjects with adverse events [5] | Abdominal Pain Upper: subjects with adverse events [5] | Application Site Irritation: number of adverse events [5] | Application Site Irritation: subjects with adverse events [5] | Aspartate Aminotransferase Increased: number of adverse events [5] | Aspartate Aminotransferase Increased: subjects with adverse events [5] | Dizziness: number of adverse events [5] | Dizziness: subjects with adverse events [5] | Headache: number of adverse events [5] | Headache: subjects with adverse events [5]
24: Total Adverse Events: subjects with adverse events [3]
7.1%: Positive Fecal Occult Blood Test: percentage of subjects with adverse events [4] | Positive Fecal Occult Blood Test: percentage of subjects with adverse events [5]
7.0%: Hypertriglyceridemia: percentage of subjects with adverse events [3] | Positive Fecal Occult Blood Test: percentage of subjects with adverse events [3]
1.4%: Gastroesophageal reflux disease: percentage of subjects with adverse events [1] | Upper Respiratory Tract Infection: percentage of subjects with adverse events [1] | Upper Respiratory Tract Infection: percentage of subjects with adverse events [2] | Abdominal Pain Upper: percentage of subjects with adverse events [3] | Administration Site Conditions: percentage of subjects with adverse events [3] | Alanine Aminotransferase Increased: percentage of subjects with adverse events [3] | Application Site Irritation: percentage of subjects with adverse events [3] | Headache: percentage of subjects with adverse events [3] | Abdominal Pain Upper: percentage of subjects with adverse events [4] | Administration Site Conditions: percentage of subjects with adverse events [4] | Alanine Aminotransferase Increased: percentage of subjects with adverse events [4] | Application Site Irritation: percentage of subjects with adverse events [4] | Throat Irritation: percentage of subjects with adverse events [4] | Abdominal Discomfort: percentage of subjects with adverse events [5] | Abdominal Pain Upper: percentage of subjects with adverse events [5] | Application Site Irritation: percentage of subjects with adverse events [5] | Aspartate Aminotransferase Increased: percentage of subjects with adverse events [5] | Dizziness: percentage of subjects with adverse events [5] | Headache: percentage of subjects with adverse events [5]
3: Total Adverse Events: number of adverse events [1] | Total Adverse Events: subjects with adverse events [1] | Aspartate Aminotransferase Increased: number of adverse events [3] | Aspartate Aminotransferase Increased: subjects with adverse events [3] | Abdominal Discomfort: subjects with adverse events [4] | Hypertriglyceridemia: number of adverse events [4] | Hypertriglyceridemia: subjects with adverse events [4] | Application Site Rash: number of adverse events [5] | Application Site Rash: subjects with adverse events [5]
2.9%: Diarrhoea: percentage of subjects with adverse events [4] | Dizziness: percentage of subjects with adverse events [4] | White Blood Cell Count Decreased: percentage of subjects with adverse events [4]
5: Hypertriglyceridemia: subjects with adverse events [3] | Positive Fecal Occult Blood Test: subjects with adverse events [3] | Positive Fecal Occult Blood Test: subjects with adverse events [4] | Positive Fecal Occult Blood Test: number of adverse events [5] | Positive Fecal Occult Blood Test: subjects with adverse events [5]
2.8%: Gamma-Glutamyltransferase Increased: percentage of subjects with adverse events [3] | Throat Irritation: percentage of subjects with adverse events [3] | White Blood Cell Count Decreased: percentage of subjects with adverse events [3]
25: Total Adverse Events: number of adverse events [5] | Total Adverse Events: subjects with adverse events [5]
6: Hypertriglyceridemia: number of adverse events [3] | Positive Fecal Occult Blood Test: number of adverse events [3] | Headache: number of adverse events [4] | Positive Fecal Occult Blood Test: number of adverse events [4] | Hypertriglyceridemia: number of adverse events [5] | Hypertriglyceridemia: subjects with adverse events [5]
8.6%: Hypertriglyceridemia: percentage of subjects with adverse events [5]
4: Total Adverse Events: number of adverse events [2] | Total Adverse Events: subjects with adverse events [2] | Upper Respiratory Tract Infection: number of adverse events [2] | Upper Respiratory Tract Infection: subjects with adverse events [2] | Abdominal Discomfort: number of adverse events [4] | Headache: subjects with adverse events [4] | Administration Site Conditions: number of adverse events [5] | Administration Site Conditions: subjects with adverse events [5]
35.7%: Total Adverse Events: percentage of subjects with adverse events [5]
34: Total Adverse Events: number of adverse events [4]
2: Gamma-Glutamyltransferase Increased: number of adverse events [3] | Gamma-Glutamyltransferase Increased: subjects with adverse events [3] | Throat Irritation: number of adverse events [3] | Throat Irritation: subjects with adverse events [3] | White Blood Cell Count Decreased: number of adverse events [3] | White Blood Cell Count Decreased: subjects with adverse events [3] | Diarrhoea: number of adverse events [4] | Diarrhoea: subjects with adverse events [4] | Dizziness: number of adverse events [4] | Dizziness: subjects with adverse events [4] | White Blood Cell Count Decreased: number of adverse events [4] | White Blood Cell Count Decreased: subjects with adverse events [4] | Abdominal Pain Upper: number of adverse events [5]
29: Total Adverse Events: subjects with adverse events [4]
